Results as given in patent publication US20240285773A1, “METHODS OF TREATING MYELODYSPLASTIC SYNDROME AND MONITORING THE TREATMENT” (Geron Corporation, priority 2023, published 2024).
Where “and” joins values, the source holds several entries; their conditions need not be identical. Equal entries are not always repeated. [nps] = N3'→P5' thiophosphoramidate linkage; {Palm} = palmitoyl lipid

Experiments:
DNMT3A = test: Gene mutation analysis (NGS): DNMT3A VAF and clinical response; format: in vivo, human; conditions: imetelstat group
Text: VAF for the target genes can be determined and/or measured using any convenient methods. In one such method, whole blood collected in an EDTA tube is used to perform Next Generation Sequencing (NGS), for example, using LeukoVantage®. NGS using any other sequencing platform can be used, for example, nanopore sequencing, paired-end sequencing, Ion Torrent sequencing, and single molecule real time (SMRT) sequencing. An MDS gene panel can be used. For example, a gene panel containing one or more of SF3B1, TET2, DNMT3A and ASXL1 can be used. […] The percentage of mutation reads will be reported and can be used to assess the size of the clonal population. VAF is the percentage of sequence reads observed matching a specific DNA variant divided by the overall coverage at that locus. […]
VAF changes were assessed from blood taken pre- and every 12 weeks post-treatment in patients with greater than or equal to 5% variant allele at baseline and >1 post-baseline assessment. T-tests evaluated group comparison, Fisher's exact test evaluated association, and linear regression evaluated correlation. […]
Blood samples were collected at baseline and during study visits approximately every 12 weeks. […] The lower limit of sensitivity is 5% mutated alleles in a mixed population; the percentage of mutation reads is reported and used to assess the size of the clonal population.

[1] = test system: patients with baseline cytogenetic abnormality; test: Phase 3 trial: cytogenetic response per IWG 2006; format: in vivo, human
Text: The primary end point was rate of RBC-TI for 8 consecutive weeks or longer. Key secondary end points included rate of 24-week TI, duration of TI, and the rate of hematologic response (hematologic improvement-erythroid [HI-E], based on modified International Working Group [IWG] 2006 criteria, and HI-E per revised IWG 2018). Additional secondary end points included relative change in number of RBC transfusions received by patients, relative change in hemoglobin, and safety. The changes in mutational status and in patient-reported fatigue over time (assessed by the Functional Assessment of Chronic Illness Therapy [FACIT] Fatigue Scale) were exploratory end points. Subgroup analyses were performed including baseline presence or absence of RS, prior RBC transfusion burden (≥4 to ≤6 or >6 RBC units/8-weeks during a 16-week period prior to randomization), and low or intermediate-1 IPSS risk categories. Subgroup analyses were also performed, including baseline mutation status as well as telomerase activity (TA), telomere lengths (TL), and human telomerase reverse transcriptase (hTERT) levels. Peripheral blood hematology, bone marrow evaluation, mutation assessment, and cytogenetic evaluation were performed centrally and responses assessed by an independent review committee (IRC). Rate of 1-year RBC-TI was reported as a post hoc analysis.
As noted above, patients with heavily RBC-TD-ESA relapsed/refractory or ineligible non-del(5q) LR-MDS naive to lenalidomide and hypomethylating agents (len/HMA) received 2-hr infusion of imetelstat 7.5 mg/kg or placebo every 4 weeks. An independent review committee assessed abnormal cytogenetic profiles of bone marrow samples taken pre- and every 24 weeks post-treatment to assess cytogenetic response of complete or partial remission. Of the 178 randomized patients, 22.0% in the imetelstat group and 21.7% in the placebo group had baseline cytogenetic abnormalities and post-treatment samples.

[2] = 26 patients with baseline abnormality
[3] = ≥1-year TI responders with baseline abnormality (7)

Substance: Imetelstat: first-in-class telomerase inhibitor; synthetic lipid-conjugated 13-mer oligonucleotide N3′→P5′-thiophosphoramidate (TAGGGTTAGACAA; all [nps], 5' {Palm}, sugars by position and methylation of C not given here)
- Pearson's r: maximum % reduction in DNMT3A VAF vs maximum change in hemoglobin (DNMT3A; n=13): −0.667
- Pearson's r: maximum % reduction in DNMT3A VAF vs duration of TI (DNMT3A; n=18): −0.545
- Cytogenetic CR or PR [1, 2]: (35) %
- Cytogenetic CR or PR, patients [1, 2]: 9 N
- Cytogenetic complete response (CR) [1, 2]: (19) %
- Cytogenetic complete response (CR), patients [1, 2]: 5 N
- Cytogenetic partial response (PR) [1, 2]: (15) %
- Cytogenetic partial response (PR), patients [1, 2]: 4 N
- Cytogenetic response not evaluable [1, 2]: (46) %
- Cytogenetic response not evaluable, patients [1, 2]: 12 N
- Does not meet cytogenetic CR or PR criteria [1, 2]: (19) %
- Does not meet cytogenetic CR or PR criteria, patients [1, 2]: 5 N
- Cytogenetic CR or PR ([1]; 26 patients with baseline abnormality, listed as imetelstat): 35% and 34.6%
- Cytogenetic CR or PR, % difference vs placebo ([1]; in vivo): 19% (−16, 44)
- Did not meet the response criteria, patients [1, 3]: 1 patient
- cCR [1, 3]: 57%
- cCR, patients [1, 3]: 4 patients
- cPR [1, 3]: 29%
- cPR, patients [1, 3]: 2 patients
